What was measured:
[1] = Particle size distribution of manufacturing batches of the compound of Formula I; assay type: physicochemical; conditions: crystalline Form I batches
Text: Manufacturing batches of(2R,3R,11bR)-3-isobutyl-9,10-dimethoxy-2,3,4,6,7,11b-hexahydro-1H-pyrido[2,1-a]isoquinolin-2-yl (S)-2-amino-3-methylbutanoate di(4-methylbenzenesulfonate) (i.e., the compound of Formula I) have been prepared in a similar manner as described herein and have the following particle size distribution characterizations, as shown in Table 3.
Four separate batches of (2R,3R,11bR)-3-Isobutyl-9,10-dimethoxy-2,3,4,6,7,11b-hexahydro-1H-pyrido[2,1-a]isoquinolin-2-yl (S)-2-amino-3-methylbutanoate di(4-methylbenzenesulfonate) were manufactured in a similar manner as described herein (i.e., Example 1) in compliance with applicable cGMPs for GLP use. Certain data are shown below in Table 10 for Example 1, Step E (i.e., Batch 073) and the four batches (i.e., Batches 084, 085, 086, and 087).

[2] = Stability of standard and sample solutions (4 mg/mL) for the HPLC method; assay type: physicochemical; conditions: 4 mg/mL in DI water:acetonitrile 50:50 v/v, ambient laboratory conditions
Protocol: Diluent (DI Water:Acetonitrile, 50:50, v/v).
Note: Standard solutions are stable for 4 days at ambient laboratory conditions.
Working Standard Solution (4 mg/mL of compound of Formula I).
Note: Sample solutions are stable for 4 days at ambient laboratory conditions.
Sample Solution (4 mg/mL of compound of Formula I).

[3] = Table 3, listed as Batch 073, di(4-methylbenzenesulfonate)
[4] = Table 3, listed as Batch 084, di(4-methylbenzenesulfonate)
[5] = Table 3, listed as Batch 085, di(4-methylbenzenesulfonate)
[6] = Table 3, listed as Batch 086, di(4-methylbenzenesulfonate)
[7] = Table 3, listed as Batch 087, di(4-methylbenzenesulfonate)
[8] = Table 10, listed as Batch 073, di(4-methylbenzenesulfonate)
[9] = Table 10, listed as Batch 084, di(4-methylbenzenesulfonate)
[10] = Table 10, listed as Batch 085, di(4-methylbenzenesulfonate)
[11] = Table 10, listed as Batch 086, di(4-methylbenzenesulfonate)
[12] = Table 10, listed as Batch 087, di(4-methylbenzenesulfonate)

COc1cc2c(cc1OC)[C@H]1C[C@@H](OC(=O)[C@@H](N)C(C)C)[C@H](CC(C)C)CN1CC2 [Compound of Formula I, (2R,3R,11bR)-3-isobutyl-9,10-dimethoxy-2,3,4,6,7,11b-hexahydro-1H-pyrido[2,1-a]isoquinolin-2-yl (S)-2-amino-3-methylbutanoate di(4-methylbenzenesulfonate)]
Particle size distribution, D10 ([1]; Table 3): 3 µm
Particle size distribution, D50 [1, 3]: 14 µm
Particle size distribution, D90 [1, 3]: 45 µm
Particle size distribution, D50 [1, 4]: 13 µm
Particle size distribution, D90 [1, 4]: 43 µm
Particle size distribution, D50 [1, 5]: 13 µm
Particle size distribution, D90 [1, 5]: 44 µm
Particle size distribution, D50 [1, 6]: 14 µm
Particle size distribution, D90 [1, 6]: 48 µm
Particle size distribution, D50 [1, 7]: 13 µm
Particle size distribution, D90 [1, 7]: 45 µm
Particle size distribution, D10 ([1]; Table 10): 3 μm
Particle size distribution, D50 [1, 8]: 14 μm
Particle size distribution, D90 [1, 8]: 45 μm
Particle size distribution, D50 [1, 9]: 13 μm
Particle size distribution, D90 [1, 9]: 43 μm
Particle size distribution, D50 [1, 10]: 13 μm
Particle size distribution, D90 [1, 10]: 44 μm
Particle size distribution, D50 [1, 11]: 14 μm
Particle size distribution, D90 [1, 11]: 48 μm
Particle size distribution, D50 [1, 12]: 13 μm
Particle size distribution, D90 [1, 12]: 45 μm
Time for which solutions are stable [2]: 4 days
